Reference: patent US20190328753A1, “COMPOSITIONS AND METHODS FOR TREATING OCULAR DISEASES” (priority 2015, published 2019)
Several values for one entry are separate records, joined by “and”; a condition that tells them apart may be missing. Equal entries are not always repeated.

Experiments:
Corneal epithelial cells = experiment: Lipid production in corneal epithelial cells, dilutions of 3 mg/ml formulation, Oil Red O (Example 6); assay type: cell-based; conditions: ninth day
Description: Corneal epithelial cells were cultured in vitro and treated with 0.03 mg/ml and other dilutions of a 3 mg/ml formulation of Spironolactone (100× (0.03 mg/ml), 200× (0.015 mg/ml), 500× (0.006 mg/ml), and 1000× (0.003 mg/mI)). The corneal epithelial cells were cultured in vitro to about 10-20% confluence. The cell medium with added spironolactone was changed every 2-3 days. On the ninth day, the cells were stained for lipids with Oil Red O.

[1] = according to the literature; cited from earlier work
[2] = tested on: patients with moderate to severe meibomian gland disease; experiment: Pilot study (Example 3): topical spironolactone ophthalmic suspension in MGD, retrospective pre-post
[3] = post-treatment, n=20, lissamine green, scale 0-3
[4] = post-treatment, n=20, scale 0-4
[5] = pre vs post-treatment, n=20, positive = score decrease, scale 0-4
[6] = pre-post change, n=20, scale 0-3
[7] = pre-post change, n=20, scale 0-4

For `CC(=O)SC1CC2=CC(=O)CCC2(C)C2CCC3(C)C(CCC34CCC(=O)O4)C12` (stereo not drawn) [spironolactone, 7α-acetylthio-3-oxo-17α-pregn-4-ene-21,17-carbolactone], the “lipid production (Oil Red O)” value (Corneal epithelial cells; 0.006 mg/ml (500× dilution)) was “enhanced lipid production”, the “lipid production (Oil Red O)” value (Corneal epithelial cells; 0.015 mg/ml (200× dilution)) was “enhanced lipid production” and the “lipid production (Oil Red O)” value (Corneal epithelial cells; 0.03 mg/ml (100× dilution)) was “enhanced lipid production”. The solubility in water [1] was “practically insoluble in water”, the “side effects after topical administration” value ([2]; patients of the pilot study) was “A small percentage of the patients reported a mild temporary burning sensation in the eye” and the “Vision OD, Mean” value ([2]; post-treatment, n = 19) was 0.069±0.051 log Mar units and 0.069 log Mar units. The “Schirmer's OD, Mean” value ([2]; post-treatment, n=20) was 13.6 mm, the “Schirmer's OS, Mean” value ([2]; post-treatment, n=20) was 14.6 mm and the “Vision OS, Mean” value ([2]; post-treatment, n=20) was 0.063±0.032 log Mar units and 0.063 log Mar units. For the same compound, the “Conjunctival OD (Nasal), Mean” value [2, 3] was 0.83±0.189 and 0.83, the “Conjunctival OD (Temporal), Mean” value [2, 3] was 0.55±0.181 and 0.55 and the “Conjunctival OS (Nasal), Mean” value [2, 3] was 0.60±0.148 and 0.60. The “Conjunctival OS (Temporal), Mean” value [2, 3] was 0.40±0.134 and 0.40, the “Keratitis OD Corneal, Mean” value [2, 3] was 0.050±0.050 and 0.050 and the “Keratitis OS Corneal, Mean” value [2, 3] was 0.20±0.156 and 0.20. For the same compound, the “Anterior Blepharitis, Mean” value [2, 4] was 0.38±0.114 and 0.38, the “Obstruction, Mean” value [2, 4] was 1.58±0.236 and 1.58 and the “Turbidity, Mean” value [2, 4] was 2.3±0.193 and 2.3. The “Vascularity, Mean” value [2, 4] was 1.48±0.253 and 1.48, the “Zone A, Mean” value [2, 4] was 3.125±0.188 and 3.125 and the “Subjective Global Assessment, Mean” value ([2]; post-treatment, n=20, scale 0-10) was 4.6±0.534 and 4.6. For the same compound, the “improvement of turbidity score, percent” value ([2]; pre vs post-treatment, n=20) was 22.03%, the “improvement of zone A score, percent” value ([2]; pre vs post-treatment, n=20) was 11.97% and the “mean improvement in anterior blepharitis score” value [2, 5] was 0.175±0.230. The “mean improvement in obstruction score” value [2, 5] was 0.40±0.222, the “mean improvement in turbidity score” value [2, 5] was 0.65±0.141 and the “mean improvement in vascularity score” value [2, 5] was 0.25±0.194. The “mean improvement in zone A score” value [2, 5] was 0.425±0.186, the “improvement in self-reported global assessment scores” value ([2]; pre vs post-treatment, n=20, positive = score decrease, scale 0-10) was 1.4±0.597 and the “Vision OD (log Mar units), Change %” value ([2]; pre-post change, n = 19) was 213.64%. The “Vision OD, mean change” value ([2]; pre-post change, n = 19) was 0.047±0.043 log Mar units and 0.047 log Mar units, the “Anterior Blepharitis, Change %” value ([2]; pre-post change, n=20) was −31.82% and the “Conjunctival OD (Nasal), Change %” value ([2]; pre-post change, n=20) was −20.00%. For the same compound, the “Conjunctival OD (Temporal), Change %” value ([2]; pre-post change, n=20) was −29.49%, the “Conjunctival OS (Nasal), Change %” value ([2]; pre-post change, n=20) was −36.84% and the “Conjunctival OS (Temporal), Change %” value ([2]; pre-post change, n=20) was 20.00%. For the same compound, the “Keratitis OD (Corneal), Change %” value ([2]; pre-post change, n=20) was −50.00%, the “Keratitis OS (Corneal), Change %” value ([2]; pre-post change, n=20) was 0.00% and the “Obstruction, Change %” value ([2]; pre-post change, n=20) was −20.25%. The “Schirmer's OD (mm), Change %” value ([2]; pre-post change, n=20) was −3.71%, the “Schirmer's OD, mean change” value ([2]; pre-post change, n=20) was −0.525±1.496 mm and −0.525 mm and the “Schirmer's OS (mm), Change %” value ([2]; pre-post change, n=20) was 1.75%. The “Schirmer's OS, mean change” value ([2]; pre-post change, n=20) was 0.250±1.008 mm and 0.25 mm, the “Subjective Global Assessment, Change %” value ([2]; pre-post change, n=20) was −23.33% and the “Turbidity, Change %” value ([2]; pre-post change, n=20) was −22.03%. For the same compound, the “Vascularity, Change %” value ([2]; pre-post change, n=20) was −14.45%, the “Vision OS (log Mar units), Change %” value ([2]; pre-post change, n=20) was −7.20% and the “Zone A, Change %” value ([2]; pre-post change, n=20) was −11.97%. For the same compound, the “Conjunctival OD (Nasal), Mean Change” value [2, 6] was −0.20±0.142 and −0.20, the “Conjunctival OD (Temporal), Mean Change” value [2, 6] was −0.23±0.187 and −0.23 and the “Conjunctival OS (Nasal), Mean Change” value [2, 6] was −0.35±0.146 and −0.35. For the same compound, the “Conjunctival OS (Temporal), Mean Change” value [2, 6] was 0.10±0.204 and 0.10, the “Keratitis OD Corneal, mean change” value [2, 6] was −0.05±0.114 and −0.05 and the “Keratitis OS Corneal, mean change” value [2, 6] was 0.00±0.126 and 0.00. For the same compound, the “Anterior Blepharitis, mean change” value [2, 7] was −0.175, the “Obstruction, mean change” value [2, 7] was −0.4 and the “Turbidity, mean change” value [2, 7] was −0.65. The “Vascularity, mean change” value [2, 7] was −0.25, the “Zone A, mean change” value [2, 7] was −0.425 and the “Subjective Global Assessment, mean change” value ([2]; pre-post change, n=20, scale 0-10) was −1.4.
